Measurements as given in US4294833A, “Substituted 4-hydroxy-isophthalic acid picolylamides having a pharmaceutical activity in thromboembolic disorders” (Societa Italo-Britannica, priority 1977, dated 1981).

Assays:
[1] = test system: platelet aggregation induced by ADP; experiment: Platelet aggregation inhibitory activity in vivo (Born aggregometer), ADP-induced; design: species or system New Zealand rabbits; settings: Oryctolagus cuniculus, Platelet, ip, dose for 50% inhibition of ADP-induced aggregation curve; rabbits, intraperitoneal, blood 2, 4 and 6 hours after injection; read-out: platelet antiaggregant activity (AAP), DI50, ADP
In short: (§1)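 Born aggregometry with ADP or thrombin as inducer used citrated PRP, with PPP as blank, from anaesthetized rabbits dosed i.p. Sampling was pre-dose and at 2, 4 and 6 h. The value is the mg/kg dose giving 50% inhibition of the aggregation curve versus each rabbit's own pre-treatment control.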

[2] = test system: platelet aggregation induced by thrombin; experiment: Platelet aggregation inhibitory activity in vivo (Born aggregometer), thrombin-induced; design: species or system New Zealand rabbits; settings: Oryctolagus cuniculus, Platelet, ip, dose for 50% inhibition of thrombin-induced aggregation curve; rabbits, intraperitoneal, blood 2, 4 and 6 hours after injection; read-out: platelet antiaggregant activity (AAP), DI50, Thrombin
In short: as §1

[3] = test system: thrombin-induced coagulation of platelet rich plasma; experiment: Antithrombin activity on PRP, Hartert's thromboelastograph; type: in vivo, New Zealand rabbits; settings: Oryctolagus cuniculus, Platelet, ip, percent decrease of index ma/[r+k] vs before treatment; 20 mg/kg intraperitoneal, rabbits
In short: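 Result is expressed as the percent reduction of the thromboelastographic index ma/(r+k) compared with the same index measured before treatment. Treatment was 20 mg/kg of compound i.p., followed by addition of thrombin (60 units, pH 7.4) to the platelet rich plasma.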

[4] = test system: CaCl2-induced plasma coagulation; experiment: Anticoagulant activity on PRP, Hartert's thromboelastograph; type: in vivo, New Zealand rabbits; settings: Oryctolagus cuniculus, ip, percent increase of total time for coagulum formation (r+k) vs before treatment; 25 mg/kg intraperitoneal, rabbits; read-out: anticoagulant activity (AC)
In short: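 Thromboelastographic r+k index of PRP, clotted by adding 1.29% CaCl2, compared before and after treatment and expressed as percent increase. Each compound given intraperitoneally at 25 mg/kg.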

[5] = test system: blood coagulum; experiment: Fibrinolytic activity, Fearnley method (lysis of blood coagulum in toto); type: in vivo; settings: Oryctolagus cuniculus, ip, 0.5 h, percent decrease of coagulum weight after 30 minutes at 37° C.; 25 mg/kg intraperitoneal, rabbits; read-out: fibrinolytic activity (FL)
In short: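 Fibrinolysis is expressed as percent loss of clot weight after 30 min at 37 °C, following 30 min on ice. The clots formed from 0.2 ml rabbit ear-vein blood in pH 7.4 phosphate buffer with thrombin (50 NIH units/ml solution). Samples were taken before and after an intraperitoneal dose of 25 mg/kg.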

[6] = Acute toxicity, intraperitoneal; settings: mouse, in vivo, ip, male Swiss mice, intraperitoneal, 7 days observation; preliminary, by graphic interpolation; read-out: acute toxicity (LD50 / DL50)
In short: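 Male Swiss mice (20±2 g), fasted 18 h with water ad libitum, were dosed intraperitoneally and observed for 7 days for symptoms and deaths. Preliminary LD50 (mg/kg) was obtained by graphic interpolation.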

## C=CCOc1c(Cl)cc(C(=O)NCc2ccncc2)cc1C(=O)NCc1ccncc1 [Example 67]
[1]
  ED50: 55.6 mg/kg
[2]
  ED50: 34.2 mg/kg
[3]
  inhibition in vivo at 20 mg/kg: 39.8%
[4]
  change in vivo at 25 mg/kg: 14.6%
[5]
  fibrinolytic activity (percent decrease of coagulum weight) at 25 mg/kg: 27.1%
[6]
  LD50 at 168 h: 187 mg/kg

## C=C(C)Oc1c(Cl)cc(C(=O)N(C)Cc2ccncc2)cc1C(=O)N(C)Cc1ccncc1 [Example 68]
[1]
  ED50: 47.5 mg/kg
[2]
  ED50: 30 mg/kg
[3]
  inhibition in vivo at 20 mg/kg: 35.2%
[4]
  change in vivo at 25 mg/kg: 15.5%
[5]
  fibrinolytic activity (percent decrease of coagulum weight) at 25 mg/kg: 30%
[6]
  LD50 at 168 h: 255 mg/kg

## CCCOc1ccc(C(=O)NCc2ccncc2)cc1C(=O)NCc1ccncc1 [Example 59]
[1]
  ED50: 25.2 mg/kg
[2]
  ED50: 18.1 mg/kg
[3]
  inhibition in vivo at 20 mg/kg: 39.1%
[4]
  change in vivo at 25 mg/kg: 20.6%
[5]
  fibrinolytic activity (percent decrease of coagulum weight) at 25 mg/kg: 32.8%
[6]
  LD50 at 168 h: 623 mg/kg

## CCCCN(Cc1cccnc1)C(=O)c1ccc(OC)c(C(=O)N(CCCC)Cc2cccnc2)c1 [Example 42]
[1]
  ED50: 66.4 mg/kg
[2]
  ED50: 47.2 mg/kg
[3]
  inhibition in vivo at 20 mg/kg: 28.7%
[4]
  change in vivo at 25 mg/kg: 14.5%
[5]
  fibrinolytic activity (percent decrease of coagulum weight) at 25 mg/kg: 21.7%
[6]
  LD50 at 168 h: 623 mg/kg

## CC=COc1c(Cl)cc(C(=O)N(Cc2cccnc2)C(C)(C)CC)cc1C(=O)N(Cc1cccnc1)C(C)(C)CC [Example 47]
[1]
  ED50: 55.8 mg/kg
[2]
  ED50: 36.2 mg/kg
[3]
  inhibition in vivo at 20 mg/kg: 25.6%
[4]
  change in vivo at 25 mg/kg: 12.8%
[5]
  fibrinolytic activity (percent decrease of coagulum weight) at 25 mg/kg: 19.5%
[6]
  LD50 at 168 h: 210 mg/kg

## COc1cc(C(=O)NCc2cccnc2)cc(C(=O)NCc2cccnc2)c1OC1CCC1 [Example 19]
[1]
  ED50: 34.7 mg/kg
[2]
  ED50: 25.2 mg/kg
[3]
  inhibition in vivo at 20 mg/kg: 32.8%
[4]
  change in vivo at 25 mg/kg: 15.6%
[5]
  fibrinolytic activity (percent decrease of coagulum weight) at 25 mg/kg: 28.1%
[6]
  LD50 at 168 h: 254 mg/kg

## C=C(C)COc1ccc(C(=O)N(CCC)Cc2ccncc2)cc1C(=O)N(CCC)Cc1ccncc1 [Example 70]
[1]
  ED50: 30.6 mg/kg
[2]
  ED50: 20.8 mg/kg
[3]
  inhibition in vivo at 20 mg/kg: 48.2%
[4]
  change in vivo at 25 mg/kg: 18.9%
[5]
  fibrinolytic activity (percent decrease of coagulum weight) at 25 mg/kg: 39.3%
[6]
  LD50 at 168 h: 360 mg/kg

## CCCN(Cc1cccnc1)C(=O)c1ccc(OC)c(C(=O)N(CCC)Cc2cccnc2)c1 [Example 41]
[1]
  ED50: 65.1 mg/kg
[2]
  ED50: 46.5 mg/kg
[3]
  inhibition in vivo at 20 mg/kg: 26.3%
[4]
  change in vivo at 25 mg/kg: 15.8%
[5]
  fibrinolytic activity (percent decrease of coagulum weight) at 25 mg/kg: 22.3%
[6]
  LD50 at 168 h: 620 mg/kg

## O=C(NCc1cccnc1)c1cc(C(=O)NCc2cccnc2)c(O)c([N+](=O)[O-])c1 [Example 31]
[1]
  ED50: 36.6 mg/kg
[2]
  ED50: 27 mg/kg
[3]
  inhibition in vivo at 20 mg/kg: 23.1%
[4]
  change in vivo at 25 mg/kg: 13.6%
[5]
  fibrinolytic activity (percent decrease of coagulum weight) at 25 mg/kg: 20.5%
[6]
  LD50 at 168 h: 345 mg/kg

## CCOc1ccc(C(=O)N(CCCC(C)C)Cc2cccnc2)cc1C(=O)N(CCCC(C)C)Cc1cccnc1 [Example 46]
[1]
  ED50: 34.3 mg/kg
[2]
  ED50: 24.7 mg/kg
[3]
  inhibition in vivo at 20 mg/kg: 32.7%
[4]
  change in vivo at 25 mg/kg: 15.5%
[5]
  fibrinolytic activity (percent decrease of coagulum weight) at 25 mg/kg: 29.1%
[6]
  LD50 at 168 h: 451 mg/kg

## C=CC(C)Oc1ccc(C(=O)NCc2ccncc2)cc1C(=O)NCc1ccncc1 (stereo not drawn) [Example 64]
[1]
  ED50: 35.1 mg/kg
[2]
  ED50: 24 mg/kg
[3]
  inhibition in vivo at 20 mg/kg: 45.9%
[4]
  change in vivo at 25 mg/kg: 19.2%
[5]
  fibrinolytic activity (percent decrease of coagulum weight) at 25 mg/kg: 33.6%
[6]
  LD50 at 168 h: 360 mg/kg

## CCCCOc1c(Cl)cc(C(=O)NCc2cccnc2)cc1C(=O)NCc1cccnc1 [Example 26]
[1]
  ED50: 43.7 mg/kg
[2]
  ED50: 30.2 mg/kg
[3]
  inhibition in vivo at 20 mg/kg: 33.5%
[4]
  change in vivo at 25 mg/kg: 22.2%
[5]
  fibrinolytic activity (percent decrease of coagulum weight) at 25 mg/kg: 28.4%
[6]
  LD50 at 168 h: 205 mg/kg

## CCN(Cc1cccnc1)C(=O)c1ccc(OC)c(C(=O)N(CC)Cc2cccnc2)c1 [Example 40]
[1]
  ED50: 60.2 mg/kg
[2]
  ED50: 42.3 mg/kg
[3]
  inhibition in vivo at 20 mg/kg: 28.9%
[4]
  change in vivo at 25 mg/kg: 13.4%
[5]
  fibrinolytic activity (percent decrease of coagulum weight) at 25 mg/kg: 20.6%
[6]
  LD50 at 168 h: 605 mg/kg

## COc1ccc(C(=O)NCc2ccncc2)cc1C(=O)NCc1ccncc1 [Example 58]
[1]
  ED50: 28.1 mg/kg
[2]
  ED50: 21.3 mg/kg
[3]
  inhibition in vivo at 20 mg/kg: 37%
[4]
  change in vivo at 25 mg/kg: 18.2%
[5]
  fibrinolytic activity (percent decrease of coagulum weight) at 25 mg/kg: 31.7%
[6]
  LD50 at 168 h: 704 mg/kg

## C=CC(C)Oc1ccc(C(=O)NCc2cccnc2)cc1C(=O)NCc1cccnc1 (stereo not drawn) [Example 54]
[1]
  ED50: 32.3 mg/kg
[2]
  ED50: 21.2 mg/kg
[3]
  inhibition in vivo at 20 mg/kg: 46.3%
[4]
  change in vivo at 25 mg/kg: 18.7%
[5]
  fibrinolytic activity (percent decrease of coagulum weight) at 25 mg/kg: 35.2%
[6]
  LD50 at 168 h: 355 mg/kg

## CC(C)(C)Oc1ccc(C(=O)NCc2cccnc2)cc1C(=O)NCc1cccnc1 [Example 16]
[1]
  ED50: 45.2 mg/kg
[2]
  ED50: 30.3 mg/kg
[3]
  inhibition in vivo at 20 mg/kg: 27.6%
[4]
  change in vivo at 25 mg/kg: 13.6%
[5]
  fibrinolytic activity (percent decrease of coagulum weight) at 25 mg/kg: 21.9%
[6]
  LD50 at 168 h: 325 mg/kg

## CC=CCOc1ccc(C(=O)N(C)Cc2cccnc2)cc1C(=O)N(C)Cc1cccnc1 [Example 53]
[1]
  ED50: 27.5 mg/kg
[2]
  ED50: 19.6 mg/kg
[3]
  inhibition in vivo at 20 mg/kg: 47.9%
[4]
  change in vivo at 25 mg/kg: 15.1%
[5]
  fibrinolytic activity (percent decrease of coagulum weight) at 25 mg/kg: 40.5%
[6]
  LD50 at 168 h: 215 mg/kg

## CC(C)(C)COc1c(C(=O)NCc2cccnc2)cc(C(=O)NCc2cccnc2)cc1[N+](=O)[O-] [Example 35]
[1]
  ED50: 37.1 mg/kg
[2]
  ED50: 29.7 mg/kg
[3]
  inhibition in vivo at 20 mg/kg: 25.4%
[4]
  change in vivo at 25 mg/kg: 12.6%
[5]
  fibrinolytic activity (percent decrease of coagulum weight) at 25 mg/kg: 20.2%
[6]
  LD50 at 168 h: 194 mg/kg

## O=C(NCc1cccnc1)c1cc(Cl)c(O)c(C(=O)NCc2cccnc2)c1 [Example 32]
[1]
  ED50: 50.2 mg/kg
[2]
  ED50: 33.6 mg/kg
[3]
  inhibition in vivo at 20 mg/kg: 22.2%
[4]
  change in vivo at 25 mg/kg: 11.8%
[5]
  fibrinolytic activity (percent decrease of coagulum weight) at 25 mg/kg: 17.3%
[6]
  LD50 at 168 h: 425 mg/kg

## C=C(C)Oc1c(Cl)cc(C(=O)N(C)Cc2cccnc2)cc1C(=O)N(C)Cc1cccnc1 [Example 52]
[1]
  ED50: 49.2 mg/kg
[2]
  ED50: 32.1 mg/kg
[3]
  inhibition in vivo at 20 mg/kg: 29.1%
[4]
  change in vivo at 25 mg/kg: 14.2%
[5]
  fibrinolytic activity (percent decrease of coagulum weight) at 25 mg/kg: 26.7%
[6]
  LD50 at 168 h: 194 mg/kg
